Test results: patent US20240116946A1 (Gilead Sciences, Inc., priority 2022, published 2024)
Like-named read-outs stand apart in the source and are kept apart here.

How the values were obtained:
[1] = molecular target: recombinant SARS-CoV-2 Main protease (Mpro) (Severe acute respiratory syndrome coronavirus 2 (2019-nCoV) (SARS-CoV-2), UniProt P0DTD1); test: Cov Mpro Biochemical IC50 Assay; conditions: read-out: MPro IC50
SARS-CoV-2-NLuc = test: microbe, parasite or virus in culture; type: cell-based, SARS Coronavirus 2
[2] = recombinant SARS-CoV-2 Mpro 7.5 nM, fluorogenic peptide substrate 40 μM
[3] = Severe acute respiratory syndrome coronavirus, 48 h, read-out: MPro EC50
[4] = recombinant SARS-CoV-2 Mpro, fluorogenic peptide substrate
[5] = Severe acute respiratory syndrome coronavirus, 48 h; read-out: MPro EC50

Compound | IC50 [1, 2] | EC50 (SARS-CoV-2-NLuc; read-out: MPro EC50) | EC50 (SARS-CoV-2-NLuc; [3]) | IC50 [1, 4] | EC50 (SARS-CoV-2-NLuc; [5])
COc1cc(-c2cc3c(s2)c(=O)n(-c2cncc4nnn(C)c24)c(=O)n3CCC#N)c(Cl)cc1F (single isomer, unassigned) [Example 1058, 3-(6-(2-chloro-4-fluoro-5-methoxyphenyl)-3-(1-methyl-1H-[1,2,3]triazolo[4,5-c]pyridin-7-yl)-2,4-dioxo-3,4-dihydrothieno[3,2-d]pyrimidin-1(2H)-yl)propanenitrile] | 2.86 nM | 5.15 nM | – | – | –
COc1ccc(Cl)c(-c2cc3[nH]c(=O)n(-c4cncc(CC(=O)N5CCOCC5)c4)c(=O)c3s2)c1 [Example 612] | 12.2 nM | – | > 1000 nM | – | –
COc1ccc(C#N)c(-c2cc3[nH]c(=O)n(-c4cncc5ccccc45)c(=O)c3s2)c1 (single isomer, unassigned) [Example 554, 2-(3-(isoquinolin-4-yl)-2,4-dioxo-1,2,3,4-tetrahydrothieno[3,2-d]pyrimidin-6-yl)-4-methoxybenzonitrile] | 3.88 nM | 14.9 nM | – | – | –
N#CCn1c(=O)n(-c2cncc3ccccc23)c(=O)c2sc(-c3c(Cl)cccc3-c3cncc(C#N)c3)cc21 [Example 681] | 4.49 nM | – | 11.1 nM | – | –
COc1cc(-c2cc3c(s2)c(=O)n(-c2cncc4nc(C(F)(F)F)n(C)c24)c(=O)n3CCC#N)c(Cl)cc1F (single isomer, unassigned) [Example 973, 3-(6-(2-chloro-4-fluoro-5-methoxyphenyl)-3-(1-methyl-2-(trifluoromethyl)-1H-imidazo[4,5-c]pyridin-7-yl)-2,4-dioxo-3,4-dihydrothieno[3,2-d]pyrimidin-1(2H)-yl)propanenitrile] | 6.68 nM | 14.7 nM | – | – | –
COc1cc(-c2cc3[nH]c(=O)n(-c4cncc5cccc(Cl)c45)c(=O)c3s2)c(Cl)cc1F [Example 1074] | 4.32 nM | 5.89 nM | – | – | –
COc1cc(-c2cc3c(s2)c(=O)n(-c2cnnc(C)c2)c(=O)n3CCC#N)c(Cl)cc1F [Example 988] | 63.4 nM | – | 259 nM | – | –
CN1C(=O)COc2ccc(-c3cccc(Cl)c3-c3ccc4c(=O)n(-c5cncc6ccccc56)c(=O)[nH]c4c3)cc21 [Example 196] | – | – | 15.6 nM | 17.4 nM | –
COc1ccc(Cl)c(-c2cc3[nH]c(=O)n(-c4cncc5c(Cl)cccc45)c(=O)c3s2)c1 [Example 595] | 476 nM | – | 1180 nM | – | –
CS(=O)(=O)N1CC2(CN(c3ccc4cncc(-n5c(=O)[nH]c6cc(-c7ccccc7Cl)sc6c5=O)c4c3)C2)C1 [Example 424] | 11.3 nM | – | 55.8 nM | – | –
Cc1nc2cncc(-n3c(=O)c4sc(-c5ccc(F)cc5Cl)cc4n(CCC#N)c3=O)c2n1C (single isomer, unassigned) [Example 965, 3-(6-(2-chloro-4-fluorophenyl)-3-(1,2-dimethyl-1H-imidazo[4,5-c]pyridin-7-yl)-2,4-dioxo-3,4-dihydrothieno[3,2-d]pyrimidin-1(2H)-yl)propanenitrile] | 20.1 nM | 78.3 nM | – | – | –
Cc1cccc2cncc(-n3c(=O)[nH]c4cc(-c5ccccc5Cl)sc4c3=O)c12 [Example 558, 6-(2-chlorophenyl)-3-(5-methylisoquinolin-4-yl)thieno[3,2-d]pyrimidine-2,4(1H,3H)-dione] | 3.39 nM | – | 17.5 nM | – | –
CS(=O)(=O)N1CC(Nc2ccc3cncc(-n4c(=O)[nH]c5cc(-c6ccccc6Cl)sc5c4=O)c3c2)C1 [Example 406] | 12.6 nM | – | 471 nM | – | –
CC1(C)Cc2c(-c3cccc(Cl)c3-c3ccc4c(=O)n(-c5cncc6ccccc56)c(=O)[nH]c4c3)cnn2C1 [Example 190] | – | – | 16.4 nM | 19.7 nM | –
O=c1[nH]c2cc(-c3c(Cl)cccc3-c3ccnnc3)ccc2c(=O)n1-c1cncc2ccccc12 [Example 101, 7-(2-chloro-6-(pyridazin-4-yl)phenyl)-3-(isoquinolin-4-yl)quinazoline-2,4(1H,3H)-dione] | – | – | – | 13.7 nM | 73.8 nM
NC(=O)c1cc(-c2cccc(Cl)c2-c2ccc3c(=O)n(-c4cncc5ccccc45)c(=O)[nH]c3c2)ccc1F [Example 260] | – | – | 10.3 nM | 15.3 nM | –
CC1(O)CN(c2ccc3cncc(-n4c(=O)[nH]c5cc(-c6ccccc6Cl)sc5c4=O)c3c2)C1 [Example 390] | – | – | 19.1 nM | 11.6 nM | –
O=c1[nH]c2cc(-c3c(Cl)cccc3-c3cnn4c3CNCC4)ccc2c(=O)n1-c1cncc2ccccc12 [Example 474] | 14 nM | – | 124 nM | – | –
COc1cc(-c2cc3[nH]c(=O)n(-c4cncc5cc(C#N)sc45)c(=O)c3s2)c(Cl)cc1F [Example 1011, 7-[6-(2-chloro-4-fluoro-5-methoxy-phenyl)-2,4-dioxo-1H-thieno[3,2-d]pyrimidin-3-yl]thieno[3,2-c]pyridine-2-carbonitrile] | 14.5 nM | – | 81.2 nM | – | –
COc1cc(-c2cc3c(s2)c(=O)n(-c2cncc4cnn(C)c24)c(=O)n3CCCC#N)c(Cl)cc1F [Example 658] | 14.4 nM | – | 22.8 nM | – | –
O=c1[nH]c2cc(-c3ccc4sccc4c3)ccc2c(=O)n1-c1cncc2ccccc12 [Example 49] | – | – | 12800 nM | > 100000 nM | –

Compound | IC50 [1, 2] | EC50 (SARS-CoV-2-NLuc; read-out: MPro EC50) | EC50 (SARS-CoV-2-NLuc; [3]) | IC50 [1, 4] | EC50 (SARS-CoV-2-NLuc; [5])
COc1cc(-c2cc3c(s2)c(=O)n(-c2cncc4ccccc24)c(=O)n3[C@H]2C[C@@H](C#N)C2)c(Cl)cc1F [Example 694] | 19.3 nM | – | 61 nM | – | –
COc1cc(-c2cc3[nH]c(=O)n(-c4cncc5cccnc45)c(=O)c3s2)c(Cl)cc1F [Example 553, 6-(2-chloro-4-fluoro-5-methoxy-phenyl)-3-(1,6-naphthyridin-8-yl)-1H-thieno[3,2-d]pyrimidine-2,4-dione] | 7.58 nM | – | 12 nM | – | –
CC(C)Cn1cc(-c2cccc(Cl)c2-c2ccc3c(=O)n(-c4cncc5ccccc45)c(=O)[nH]c3c2)c(C(F)(F)F)n1 [Example 201] | – | – | 59 nM | 110 nM | –
COc1cc(-c2cc3c(s2)c(=O)n(-c2cncc4nc(C(F)(F)F)n(C)c24)c(=O)n3CCC#N)c(Cl)cc1F (single isomer, unassigned) [Example 974, 3-(6-(2-chloro-4-fluoro-5-methoxyphenyl)-3-(1-methyl-2-(trifluoromethyl)-1H-imidazo[4,5-c]pyridin-7-yl)-2,4-dioxo-3,4-dihydrothieno[3,2-d]pyrimidin-1(2H)-yl)propanenitrile] | 242 nM | 602 nM | – | – | –
COc1c(C)cncc1-n1c(=O)[nH]c2cc(-c3ccccc3Cl)sc2c1=O [Example 213] | – | – | – | 16.4 nM | 31.1 nM
COc1cc(-c2cc3c(s2)c(=O)n(-c2cncc(F)c2C)c(=O)n3CCC#N)c(C#N)cc1F [Example 849] | 12.8 nM | – | 30.4 nM | – | –
CC(C)Oc1ccc(Cl)c(-c2ccc3c(=O)n(-c4cncc5ccccc45)c(=O)[nH]c3c2)c1 [Example 297] | – | – | 223 nM | 680 nM | –
COc1cc(-c2cc3c(s2)c(=O)n(-c2cncc4ccccc24)c(=O)n3CCC#N)c(Cl)cc1F (single isomer, unassigned) [Example 638, 3-[6-(2-chloro-4-fluoro-5-methoxy-phenyl)-3-(4-isoquinolyl)-2,4-dioxo-thieno[3,2-d]pyrimidin-1-yl]propanenitrile] | 192 nM | 60.6 nM | – | – | –
COc1cc(-c2cc3c(s2)c(=O)n(-c2cncc4ccc(Cl)cc24)c(=O)n3CCC#N)c(Cl)cc1F [Example 946] | 6.82 nM | – | 12.9 nM | – | –
COc1cc(-c2ccc3c(=O)n(-c4cncc5ccccc45)c(=O)[nH]c3c2)c(C#N)cc1F [Example 319] | – | – | 27.9 nM | 10.7 nM | –
COc1cc(-c2cc3c(s2)c(=O)n(-c2cncc4cnn(C)c24)c(=O)n3CCc2nnn[nH]2)c(Cl)cc1F [Example 1002, 6-(2-chloro-4-fluoro-5-methoxy-phenyl)-3-(1-methylpyrazolo[4,3-c]pyridin-7-yl)-1-[2-(1H-tetrazol-5-yl)ethyl]thieno[3,2-d]pyrimidine-2,4-dione] | 33.8 nM | 110 nM | – | – | –
N#Cc1ccccc1-c1ccc2c(=O)n(-c3cncc4ccccc34)c(=O)[nH]c2c1 [Example 65, 2-(3-(isoquinolin-4-yl)-2,4-dioxo-1,2,3,4-tetrahydroquinazolin-7-yl)benzonitrile] | – | – | 286 nM | 108 nM | –
COc1cc(-c2cc3c(s2)c(=O)n(-c2cncc4cnn(C)c24)c(=O)n3CCC#N)c(C)cc1F [Example 665] | 7.27 nM | – | 10.5 nM | – | –
N#CCCn1c(=O)n(-c2cncc(F)c2)c(=O)c2sc(-c3ccc(F)cc3Cl)cc21 [Example 788] | 35.6 nM | – | 52.2 nM | – | –
COc1ccc(Cl)c(-c2cc3[nH]c(=O)n(-c4cncc5sc(C#N)c(C)c45)c(=O)c3s2)c1 [Example 1050, 4-(6-(2-chloro-5-methoxyphenyl)-2,4-dioxo-1,4-dihydrothieno[3,2-d]pyrimidin-3(2H)-yl)-3-methylthieno[2,3-c]pyridine-2-carbonitrile] | 8.89 nM | – | – | – | 25.5 nM
Cc1nnn(C)c1-c1cccc(Cl)c1-c1ccc2c(=O)n(-c3cncc4ccccc34)c(=O)[nH]c2c1 [Example 313] | – | – | 145 nM | 40.8 nM | –
Cn1ncc2cncc(-n3c(=O)[nH]c4cc(-c5cc(F)ccc5C#N)sc4c3=O)c21 [Example 700] | 54.6 nM | – | – | – | 466 nM
COc1ccc(Cl)c(-c2cc3[nH]c(=O)n(-c4cncc5ccccc45)c(=O)c3s2)c1 (single isomer, unassigned) [Example 466, 6-(2-chloro-5-methoxyphenyl)-3-(isoquinolin-4-yl)thieno[3,2-d]pyrimidine-2,4(1H,3H)-dione] | 156 nM | 152 nM | – | – | –
COc1cccc(C#N)c1-c1ccc2c(=O)n(-c3cncc4ccccc34)c(=O)[nH]c2c1 [Example 71] | – | – | 141 nM | 76.4 nM | –
N#CCCn1c(=O)n(-c2cncc3cccc(F)c23)c(=O)c2sc(-c3ccccc3C#N)cc21 [Example 1085] | 23.1 nM | – | 41.6 nM | – | –
